Test results as given in US5808109A, “Compounds that inhibit complement and/or suppress immune activity” (T Cell Sciences, Inc., priority 1995, dated 1998).
Structures can show the parent of a compound that is named as a salt. Where two headings read alike, the source gives them in different places. Each block holds one molecule with its values, some of them ahead of it.

Legend:
C3a production = experiment: Inhibition of C3a production in human serum (aggregated IgG, RIA); assay type: biochemical; details: human serum, concentration inhibiting C3a production 50% relative to control
Experimental: (§1) The ability to inhibit complement was tested by assaying for specific inhibition of C3a and C5a production. For all experiments, a single human serum pool, to be used as a source of complement, was aliquoted and stored frozen at -70° C. Human IgG was heat-aggregated, aliquoted, and stored frozen at -70° C. For each experiment, serum aliquots were equilibrated at 37° C. with varying concentrations of the compounds tested. The classical complement pathway was initiated by the addition of aggregated human IgG. Control samples containing no IgG were always included. After a fixed reaction time of 10 minutes (determined in an earlier time-course study to provide a convenient time interval during which the production of C5a or C3a is nearly complete, i.e., greater than 90%), the levels of the released complement peptides (C5a or C3a) were determined by radioimmunoassay using commercially available radioimmunoassay (RIA) kits (C5a RIA, UpJohn Cat. No. 3250-02; C3a RIA, UpJohn Cat. No. 3245-01; C5a RIA, Amersham Cat. No. RPA.520; C3a RIA, Amersham RPA.518).
(§2) Since a competitive immunoassay was used, complement peptide (C5a and C3a) concentrations varied inversely with the counts. The Counts Bound (CB) for a sample was defined as the total counts (in counts per minute, cpm) measured in the pellet minus the counts measured in a nonspecific binding (NSB) control. The NSB control was a sample containing only tracer peptide (^125 I-labelled) and second precipitating antiserum; it contained no C5a- or C3a-specific antiserum.
(§3) The y-axis in FIG. 2 represents the fraction inhibition. The fraction inhibition is equal to the Counts Bound (CB) for a "sample," less the CB in the "sample with no added compound," divided by the CB for the "no IgG control" less the CB in the "sample with no added compound." [formula]
(§4) FIG. 2 is representative of the data plots obtained from the assays described above.

human complement = experiment: Inhibition of complement-mediated hemolysis, human serum, sensitized sheep erythrocytes; assay type: biochemical
Experimental: The ability to inhibit complement was also tested by assaying for inhibition of complement-mediated red cell lysis (hemolysis). The inhibition of hemolysis was determined as a function of compound concentration. The compounds to be tested were diluted in 0.1M Hepes buffer (0.15N NaCl, pH 7.4), and 50 μl were added to each well of a V-bottom microtiter plate. Human serum, used as the complement source, was diluted 1 to 500 in Hepes buffer, and 50 μl were added to each well. Next, commercially available sheep erythrocytes with anti-sheep antibody (Diamedix Cat. No. 789-001) were used as received and added at 100 μl/well to initiate the complement pathway leading to hemolysis. The plate was incubated for 60 minutes at 37° C. and then centrifuged at 500×g for 10 minutes. The supernatants were removed and placed in a flat-bottom microtiter plate. The extent of hemolysis was measured as a function of the sample absorbance at 410 nm. The maximal absorbance (corresponding to maximal hemolysis), Amax, was obtained from the absorbance value of an erythrocyte sample containing only human serum, AS, less the absorbance of a sample containing only the red cells, A0. Thus, Amax =AS -A0. The difference between the absorbance of an erythrocyte sample containing both human serum and inhibitive compound, and the absorbance of a cell sample containing inhibitive compound only, was defined as Asample. The inhibition, IH, was expressed as the fraction (Amax -Asample)/Amax, and IH50 was defined as the concentration of inhibitive compound required to produce a value of IH=1/2.
The 4 substituted spirobenzofuran compounds of example 7 and the disubstituted spirobenzofuran compounds of example 8 were tested for their capacity to inhibit complement-mediated lysis of sheep red blood cells (SRBC) as described in Section 6.6.2 supra with the modification that the human serum used as the complement source was diluted to 1 to 100 in Hepes buffer, instead of […]. The results of the hemolysis assays are shown in FIG. 8 and Tables XI and XII.

C5a production = experiment: Inhibition of C5a production in human serum (aggregated IgG, RIA); assay type: biochemical; details: concentration inhibiting C5a production 50% relative to control
Experimental: as §1, §2, §3, §4

[1] = system: human peripheral blood lymphocytes (PBL); experiment: Inhibition of proliferation of peripheral blood lymphocytes, 3H-thymidine incorporation; assay type: cell-based; details: Lymphocyte, Table IX, 72 h
Experimental: The proliferation of human peripheral blood lymphocytes (PBL) in response to phytohemagglutinin (PHA, Well-come) or anti-CD3 monoclonal antibody (OKT-3, Ortho) was assessed by the incorporation of ^3 H-thymidine. Compound 11a was diluted in culture media to the desired concentrations, human PBL were added to a final concentration of 10^6 cells/ml, and then either PHA (Wellcome) or anti-CD3 (OKT3, Ortho) antibody (final concentration, […]) was added to initiate proliferation. The final volume per sample was 100 μl. The cells were incubated for 72 hours after stimulation, pulsed with 1 μCi ^3 H-thymidine per sample for 4 hours, harvested, and counted in a scintillation counter. […] Because cell viability was unaffected by the presence of 11a (see supra), the inhibition apparently was not due to cytotoxic effects.

factor I = biological target: T1, factor I (Homo sapiens, UniProt P05156); experiment: Inhibition of C3b proteolysis by factor I (SDS-PAGE densitometry); assay type: biochemical; details: sCR1 8 nM as cofactor, C3b 1.2 μM, factor I 0.1 μM, 60 min 37° C.; read-out: C3b cleavage by Factor I, concentration yielding 50% inhibition
T1 construct: purchased Cytotech, San Diego, Calif
T1 sequence (P05156 340-583 limits assumed): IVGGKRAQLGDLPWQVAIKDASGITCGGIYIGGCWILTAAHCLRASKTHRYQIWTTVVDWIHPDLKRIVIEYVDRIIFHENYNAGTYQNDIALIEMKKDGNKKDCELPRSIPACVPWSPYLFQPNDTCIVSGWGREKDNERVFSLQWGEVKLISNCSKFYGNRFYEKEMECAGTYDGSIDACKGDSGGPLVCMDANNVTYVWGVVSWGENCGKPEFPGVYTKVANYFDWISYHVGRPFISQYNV
Excerpt: The reactions were stopped by the addition of reducing SDS-PAGE sample buffer (Laemmli, 1970, Nature, 227:680-685) subjected to electrophoresis on 4-20% polyacrylamide gradient gels, visualized with Coomassie Blue stain, and quantitated by densitometry. Controls lacking factor I and controls with factor I but lacking test compounds were included. Results are reported as the concentration of test compound which inhibited approximately fifty percent (50%) of the C3b a-chain degradation, IC50.

[2] = system: alternative complement pathway; experiment: Inhibition of alternative pathway mediated hemolysis, rabbit erythrocytes, human serum; assay type: biochemical; details: Table XIV, human serum 1 in 24, read-out: Alternative pathway AH50
Experimental: The capacity of the substituted dihydrobenzofurans to inhibit the alternative complement pathway was assessed using the modified method of Platts-Mills and Ishizaka, 1974, J. Immunol., 113:348-358. Essentially, rabbit erythrocytes were lysed using human serum as complement in gelatin veronal buffer (GVB, Sigma, St. Louis, Mo.) with added EGTA (ethylene glycol-bis[β-aminoethyl ether]N,N,N^1,N^1 -tetraacetic acid) and Mg^2+ to 8 mM and 2 mM, respectively. Rabbit erythrocytes (4.5×10^6 cells/ml), human serum (1 in 24 dilution), and the compounds to be tested were incubated one hour at 37° C. in a V-bottom microtiter plate, cells pelleted by centrifugation, the supernatants transferred to a flat-bottom microtiter plate, and the absorbance at 410 nm determined. Samples were paired with identical controls lacking human serum (complement-independent lysis). Both samples and controls were run in triplicate. Control values were subtracted from sample values and the fractional inhibition was determined relative to the uninhibited (no added compound) sample. Results are reported as the concentration of compound yielding fifty per cent (50%) inhibition, AH50. The AH50 values for several of the compounds are included along with the results of other in vitro assays in Table XIV.

[3] = Table VII, human serum, read-out: IHO50
[4] = PHA stimulation, read-out: IP50 PHA-stimulated PBL
[5] = anti-CD3 (OKT-3) stimulation, read-out: IP50 OKT-3-stimulated PBL
[6] = Table XII, human serum diluted 1 to 100, read-out: IH50 Mean
[7] = Table XI, human serum diluted 1 to 100, read-out: IH50 Mean

IC50 (C3a production): > 14 mM | IC50 (C5a production): 8 mM
Structure (SMILES): COc1ccc(C(=O)O)c2c1CC(C)(C1CC=C(C)CC1)O2 (single isomer, unassigned; (+)) [(+)-20a]
IC50 (human complement; [3]): 0.68 mM | IC50 [1, 4]: 2.1 mM | IC50 [1, 5]: 1.7 mM

IC50 (C3a production): > 14 mM | IC50 (C5a production): > 14 mM
Structure (SMILES): CC1=CCC(C2(C)Cc3c(O)ccc(C(=O)O)c3O2)CC1 (single isomer, unassigned; (+)) [(+)-23a]
IC50 (human complement; [3]): 2.1 mM

IC50 (C3a production): 11 mM | IC50 (C5a production): 6 mM
Structure (SMILES): COc1ccc(C(=O)O)c2c1CC(C)(C1CC=C(C)CC1)O2 (single isomer, unassigned; (-)) [(-)-20a]
IC50 (human complement; [3]): 0.38 mM

Structure (SMILES): CC1=CCC(C2(C)Cc3c(O)ccc(C(=O)O)c3O2)CC1 (single isomer, unassigned; (-)) [(-)-23a]
IC50 (human complement; [3]): 2.4 mM | IC50 [1, 4]: 2.8 mM | IC50 [1, 5]: 2 mM

IC50 (C3a production): 13 mM | IC50 (C5a production): 8 mM
Structure (SMILES): COc1ccc(C(=O)O)c(O)c1CC1=CCCCC1 [Compound 12a, 3-(1'-CYCLOHEXENYL)METHYL-2-HYDROXY-4-METHOXYBENZOIC ACID]
IC50 (human complement; [3]): 2.1 mM

IC50 (C3a production): 18 mM | IC50 (C5a production): 9 mM
Structure (SMILES): COc1ccc(C=O)c(O)c1CC1=CCCCC1 [Compound 12b, 3-(1'-CYCLOHEXENYL)METHYL-2-HYDROXY-4-METHOXYBENZALDEHYDE]

Structure (SMILES): O=C(O)c1ccc(O)c2c1OC1(CCCCC1)C2 [Compound 14a]
IC50 (human complement; [3]): 3 mM

Structure (SMILES): COc1cc(C(=O)O)cc(O)c1CC1=CCCCC1 [Compound 15a]
IC50 (human complement; [3]): 0.82 mM | IC50 [1, 4]: 0.7 mM | IC50 [1, 5]: 0.4 mM

Structure (SMILES): COc1cc(C(=O)O)cc2c1CC1(CCCCC1)O2 [Compound 30a]
IC50 (human complement; [3]): 0.53 mM

Structure (SMILES): O=C(O)c1cc(O)c2c(c1)OC1(CCCCC1)C2 [Compound 31a]
IC50 (human complement; [3]): 1.45 mM | IC50 (human complement; [6]): 1.45 mM

Structure (SMILES): CCOc1cc(C(=O)O)cc2c1CC1(CCCCC1)O2 [Compound 44b, 6-CARBOXYLATE-4-ETHOXY-SPIRO [BENZOFURAN-2(3H)-CYCLOHEXANE] SODIUM SALT]
IC50 (human complement; [6]): 0.58 mM

Structure (SMILES): O=C(O)c1cc(OCc2ccccc2)c2c(c1)OC1(CCCCC1)C2 [Compound 55a, 4-BENZYLOXY-6-CARBOXYLSPIRO[BENZOFURAN-2(3H)-CYCLOHEXANE]]
IC50 (human complement; [6]): 2.53 mM

Structure (SMILES): CCCCOc1cc(C(=O)O)cc2c1CC1(CCCCC1)O2 [Compound 55b, 4-N-BUTYLOXY-6-CARBOXYLSPIRO[BENZOFURAN-2(3H)-CYCLOHEXANE]]
IC50 (human complement; [6]): 0.43 mM

Structure (SMILES): O=C(O)c1cc(Oc2ccccc2)c2c(c1)OC1(CCCCC1)C2 [Compound 55c, 6-CARBOXYL-4-PHENOXYSPIRO[BENZOFURAN-2(3H)-CYCLOHEXANE]]
effectiveness in inhibiting complement-mediated hemolysis compared with K76COOH (human complement): more effective | IC50 (human complement; [6]): 0.28 mM

Structure (SMILES): O=C(O)c1cc(OCCO)c2c(c1)OC1(CCCCC1)C2 [Compound 55d, 6-CARBOXYL-4-(2'-HYDROXYETHYLOXYSPIRO[BENZOFURAN-2(3H)-CYCLOHEXANE]]
IC50 (human complement; [6]): > 2.8 mM

Structure (SMILES): O=C(O)c1cc(Oc2ccc([N+](=O)[O-])cc2)c2c(c1)OC1(CCCCC1)C2 [Compound 55e, 6-CARBOXYL-4-P-NITROPHENOXYSPIRO [BENZOFURAN-2(3H)-CYCLOHEXANE]]
effectiveness in inhibiting complement-mediated hemolysis compared with K76COOH (human complement): more effective | IC50 (human complement; [6]): 0.305 mM

Structure (SMILES): O=C(O)c1ccc2c(c1)OC1(CCCCC1)C2 [Compound 55g, 6-CARBOXYLSPIRO[BENZOFURAN-2(3H)-CYCLOHEXANE]]
IC50 (human complement; [6]): 2.32 mM

Structure (SMILES): Nc1ccc(Oc2cc(C(=O)O)cc3c2CC2(CCCCC2)O3)cc1 [Compound 55h, 4p-aminophenoxy-carboxyspiro[benzofuran2(3H)-cyclohexane]
effectiveness in inhibiting complement-mediated hemolysis compared with K76COOH (human complement): more effective | IC50 (human complement; [6]): 0.32 mM

Structure (SMILES): O=C(O)c1ccc(Oc2cc(C(=O)O)cc3c2CC2(CCCCC2)O3)cc1 [Compound 55i, 6-CARBOXYL-4-P-CARBOXYLPHENOXYSPIRO[BENZOFURAN-2(3H)-CYCLOHEXANE]]
IC50 (human complement; [6]): 1.45 mM

Structure (SMILES): COc1cc(C=O)c(C(=O)O)c2c1CC1(CCCCC1)O2 [Compound 62, 7-CARBOXY-6-FORMYL-4-METHOXY PIRO[BENXOFURAN-2 (DH)-CYCLOHEXANE]
IC50 (human complement; [7]): 1.67 mM

Structure (SMILES): COc1cc(C(=O)O)c(C(=O)O)c2c1CC1(CCCCC1)O2 [Compound 66, 6,7-DICARBOXYL-4-METHOXYSPIRO [BENZOFURAN-2(3H)-CYCLOHEXANE]]
IC50 (human complement; [7]): 0.8 mM

IC50 (factor I): 0.11 mM
Structure (SMILES): CC1CCC2C(C)(C)C(O)C(O)CC2(C)C12Cc1c(O)cc(C(=O)O)c(C=O)c1O2 (stereo not drawn) [K76COOH, reference compound]
IC50 [2]: 0.85 mM | IC50 (human complement; [7]): 0.57 mM | IC50 (human complement; [6]): 0.57 mM | IC50 (human complement; Table XIV, read-out: Classical pathway IH50): 0.57 mM
